The values that follow come from paper PMC8739347 (Tropical Medicine and Health, 2022).

A word on the IC50: it is the concentration that gives 50% inhibition. The term CC50 denotes the concentration that lowers cell viability or growth by half.

Details of data set [1]: method as in PMID 11961050. As to conditions: oral route; cited from earlier work.
Data set [2] has as its system SARS-CoV-2 original Wuhan strain (hCoV-19/Japan/TY/WK-521,2019). Nature of the data set: Antiviral activity assay in Vero E6 cells, qRT-PCR of supernatant. The format is cell-based. As to conditions: Severe acute respiratory syndrome coronavirus 2, Vero C1008, Vero E6, 72 h pretreatment, MOI 0.02, 48 h pi, compound concentration (for 5-ALA/SFC the 5-ALA concentration, ratio 4:1). Background: Quantitative PCR measures a nucleic acid by following its amplification.

The subject of data set [3] is Vero E6 cells. In words: Cell viability assay (MTT). Format: cell-based. As to conditions: Vero E6, 3 days, 5-ALA concentration. As to the method: (§1) Vero E6 cells in 96-well plates were treated with samples for 3 days, and a cell viability assay was conducted in parallel with an antiviral assay. To determine the concentration that triggered a 50% reduction in cell survival (CC50), the results of the cell viability assay were evaluated by 3-(4,5-dimethylthiazol-2-yl)-2,5-diphenyl tetrazolium bromide according to the manufacturer’s instructions (Promega, Madison, WI, USA). Optical density was measured at 570 nm using a microplate reader (Synergy H1 M; BioTek Instruments, Winooski, VT, USA). Cell viability was determined using the following equation: cell viability (%) = (sample value)/(cell control) × 100. In addition, viral inhibition by 50% (IC50) was calculated as viral inhibition (%) = quantity of virus copies in (virus control − sample)/virus control × 100.

Data set [4] in a line: Cell viability assay (MTT). The format is cell-based. As to conditions: African green monkey, Vero E6 cells; Vero E6, 3 days, in parallel with Delta antiviral assay; 5-ALA concentration. Here is the method: as §1
Data set [5] deals with SARS-CoV-2. Also noted: method as in PMID 31781665. As to conditions: SFC only; cited from earlier work.

As for `NCC(=O)CCC(=O)O` [5-ALA, 5-aminolevulinic acid], the bioavailability result in data set [1] was “high bioavailability”. Further, in data set [2], the half-inhibitory concentration (IC50) was 207 µM. The half-maximal cytotoxic concentration (CC50) in data set [3] (in parallel with Alpha antiviral assay), in data set [3] (in parallel with Beta antiviral assay), in data set [3] (in parallel with Gamma antiviral assay) and in data set [3] (in parallel with Wuhan antiviral assay) was greater than 2000 µM in each case. Further, the cytotoxic concentration (CC50) at 3 days in data set [4] is greater than 2000 µM.

In the case of `CCC(CC)COC(=O)[C@H](C)N[P@](=O)(OC[C@H]1O[C@@](C#N)(c2ccc3c(N)ncnn23)[C@H](O)[C@@H]1O)Oc1ccccc1` [remdesivir, Remdesivir], the concentration for half-maximal inhibition (IC50) in data set [2] fell in the range of 0.1 to 1 µM.

As to Sodium ferrous citrate [SFC], the antiviral activity result in data set [5] is listed as “did not show antiviral activity”.
